Results published in US20080227797A1, “Pyridopyrimidine Derivatives as Pde4 Inhibitors for the Treatment of Inflammatory and Immune Diseases” (ASTRAZENECA AB, priority 2005, published 2008).
pIC50: −log10 of the molar value.

Biological target: recombinant Human Phosphodiesterase B2 (PDE4B2) (Homo sapiens, UniProt Q07343)
Assay: Human Phosphodiesterase B2 Alpha Screen Assay
Format: biochemical
Settings: cAMP substrate, Alpha Screen cAMP kit, 60 minutes at room temperature
Method: Human Phosphodiesterase B2 Alpha Screen Assay
The assay uses recombinant Human Phosphodiesterase B2 (PDE4B2) produced in house (PrAZL0133), stored at −20° C. The substrate uses cAMP, part of the Alpha Screen cAMP kit (Perkin Elmer, Cat# 6760625M), stored at 4° C. The Alpha Screen kit also includes biotinylated cAMP, acceptor and donor beads.
The assay additions were as follows: Test compounds and controls were added to white 384-well flat-bottom plates (Greiner, Cat# 781075), 0.2 μl in 100% DMSO, followed by 10 μl PDE4B2 in reaction buffer. The reaction buffer constitution was: 50 mM Tris (pH 7.5), 8.3 mM MgCl2, 1.7 mM EGTA and 0.01% (w/v) Brij®35. The enzyme and the compounds were incubated at room temperature for 15 minutes. Then 10 μl cAMP in reaction buffer was added. The assay was stopped after 60 minutes incubation at room temperature by adding 10 μl acceptor beads in detection buffer with 40 mM EDTA. The detection buffer constitution was: 5 mM Tris (pH 7.5), 0.1% (w/v) BSA and 0.1% (v/v) Tween 20. This addition followed by an addition of 10 μl donor beads in detection buffer, with biotinylated cAMP. The plates were then incubated, dark at room temperature, for 5 hours followed by measurement on a Fusion™-α analyser. IC50 values (presented in Table 1) were determined using Xlfit curve fitting using model 205.

recombinant Human Phosphodiesterase B2 (PDE4B2), sequence (Q07343 1-564 isoform Q07343-2): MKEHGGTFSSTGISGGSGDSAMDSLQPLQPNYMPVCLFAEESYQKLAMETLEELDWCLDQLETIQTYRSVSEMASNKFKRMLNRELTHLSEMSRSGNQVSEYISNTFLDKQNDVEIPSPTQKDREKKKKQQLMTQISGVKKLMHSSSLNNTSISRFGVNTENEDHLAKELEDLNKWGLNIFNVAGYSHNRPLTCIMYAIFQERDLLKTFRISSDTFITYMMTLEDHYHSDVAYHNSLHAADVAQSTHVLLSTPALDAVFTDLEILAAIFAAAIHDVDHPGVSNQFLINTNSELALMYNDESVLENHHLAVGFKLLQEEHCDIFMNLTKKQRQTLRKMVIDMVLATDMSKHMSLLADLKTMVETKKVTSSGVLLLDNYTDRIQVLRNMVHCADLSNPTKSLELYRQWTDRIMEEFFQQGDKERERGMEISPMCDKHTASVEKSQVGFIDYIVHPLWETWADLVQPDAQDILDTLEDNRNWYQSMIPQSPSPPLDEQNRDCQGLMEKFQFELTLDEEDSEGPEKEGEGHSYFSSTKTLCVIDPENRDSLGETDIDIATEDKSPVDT

SMILES | pIC50
CS(=O)(=O)c1cccc(-n2c(=O)n([C@H]3CC[C@@H](NC(=O)[C@@H](O)c4ccccc4)CC3)c(=O)c3cc(F)cnc32)c1 [Example 43, (2S)-N-{cis-4-[6-fluoro-1-[3-(methylsulfonyl)phenyl]-2,4-dioxo-1,4-dihydropyrido[2,3-d]pyrimidin-3(2H)-yl]cyclohexyl}-2-hydroxy-2-phenylacetamide] | 7.44
CS(=O)(=O)c1cccc(-n2c(=O)n([C@H]3CC[C@@H](NC(=O)CO)CC3)c(=O)c3cc(F)cnc32)c1 [Example 44, N-{cis-4-[6-fluoro-1-[3-(methylsulfonyl)phenyl]-2,4-dioxo-1,4-dihydropyrido[2,3-d]pyrimidin-3(2H)-yl]cyclohexyl}-2-hydroxyacetamide] | 6.36
COC(=O)c1cccc(-n2c(=O)n([C@H]3CC[C@@H](NC(=O)c4cc(C)ccc4O)CC3)c(=O)c3cc(F)cnc32)c1 [Example 45, methyl 3-[6-fluoro-3-{cis-4-[(2-hydroxy-5-methylbenzoyl)amino]cyclohexyl}-2,4-dioxo-3,4-dihydropyrido[2,3-d]pyrimidin-1(2H)-yl]benzoate] | > 7.80
CS(=O)(=O)N[C@H]1CC[C@@H](n2c(=O)c3cc(F)cnc3n(-c3ccc(F)c(F)c3)c2=O)CC1 [Example 47, N-{cis-4-[1-(3,4-Difluorophenyl)-6-fluoro-2,4-dioxo-1,4-dihydropyrido[2,3-d]pyrimidin-3(2H)-yl]cyclohexyl}methanesulfonamide] | 7.22
O=C(N[C@H]1CC[C@@H](n2c(=O)c3cc(F)cnc3n(-c3ccc(F)c(F)c3)c2=O)CC1)C1CC1 [Example 48, N-{cis-4-[1-(3,4-Difluorophenyl)-6-fluoro-2,4-dioxo-1,4-dihydropyrido[2,3-d]pyrimidin-3(2H)-yl]cyclohexyl}cyclopropanecarboxamide] | 8.06
COC(=O)c1cccc(-n2c(=O)n([C@H]3CC[C@@H](NC(=O)[C@@H]4CCCN4C)CC3)c(=O)c3cc(F)cnc32)c1 [Example 49, Methyl 3-[6-fluoro-3-{cis-4-[(1-methyl-L-prolyl)amino]cyclohexyl}-2,4-dioxo-3,4-dihydropyrido[2,3-d]pyrimidin-1(2H)-yl]benzoate] | 7.84
O=C(N[C@H]1CC[C@@H](n2c(=O)c3cc(F)cnc3n(-c3ccc(F)c(F)c3)c2=O)CC1)C1(O)CC1 [Example 52, N-{cis-4-[1-(3,4-difluorophenyl)-6-fluoro-2,4-dioxo-1,4-dihydropyrido[2,3-d]pyrimidin-3(2H)-yl]cyclohexyl}-1-hydroxycyclopropanecarboxamide] | 7.73
CCC(=O)N[C@H]1CC[C@@H](n2c(=O)c3cc(F)cnc3n(-c3cccc(SC)c3)c2=O)CC1 [Example 56, N-{cis-4-[6-fluoro-1-[3-(methylthio)phenyl]-2,4-dioxo-1,4-dihydropyrido[2,3-d]pyrimidin-3(2H)-yl]cyclohexyl}propanamide] | 8.14
CSc1cccc(-n2c(=O)n([C@H]3CC[C@@H](NC(=O)C(C)(C)O)CC3)c(=O)c3cc(F)cnc32)c1 [Example 59, N-{cis-4-[6-fluoro-1-[3-(methylthio)phenyl]-2,4-dioxo-1,4-dihydropyrido[2,3-d]pyrimidin-3(2H)-yl]cyclohexyl}-2-hydroxy-2-methylpropanamide] | 7.83
CSc1cccc(-n2c(=O)n([C@H]3CC[C@@H](NS(=O)(=O)c4ccccc4)CC3)c(=O)c3cc(F)cnc32)c1 [Example 60, N-{cis-4-[6-fluoro-1-[3-(methylthio)phenyl]-2,4-dioxo-1,4-dihydropyrido[2,3-d]pyrimidin-3(2H)-yl]cyclohexyl}benzenesulfonamide] | 7.49
COC(=O)c1cccc(-n2c(=O)n([C@H]3CC[C@@H](NC(=O)C(C)C)CC3)c(=O)c3cc(F)cnc32)c1 [Example 62, methyl 3-[6-fluoro-3-[cis-4-(isobutyrylamino)cyclohexyl]-2,4-dioxo-3,4-dihydropyrido[2,3-d]pyrimidin-1(2H)-yl]benzoate] | 8.20
COC(=O)c1cccc(-n2c(=O)n([C@H]3CC[C@@H](NC(=O)CC(C)C)CC3)c(=O)c3cc(F)cnc32)c1 [Example 63, methyl 3-[6-fluoro-3-{cis-4-[(3-methylbutanoyl)amino]cyclohexyl}-2,4-dioxo-3,4-dihydropyrido[2,3-d]pyrimidin-1(2H)-yl]benzoate] | 8.24
COCC(=O)N[C@H]1CC[C@@H](n2c(=O)c3cc(F)cnc3n(-c3cccc(C(=O)OC)c3)c2=O)CC1 [Example 65, methyl 3-[6-fluoro-3-{cis-4-[(methoxyacetyl)amino]cyclohexyl}-2,4-dioxo-3,4-dihydropyrido[2,3-d]pyrimidin-1(2H)-yl]benzoate] | 7.95
COC(=O)c1cccc(-n2c(=O)n([C@H]3CC[C@@H](NC(C)=O)CC3)c(=O)c3cc(F)cnc32)c1 [Example 67, methyl 3-[3-[cis-4-(acetylamino)cyclohexyl]-6-fluoro-2,4-dioxo-3,4-dihydropyrido[2,3-d]pyrimidin-1(2H)-yl]benzoate] | 7.67

More lines, in order of rising pIC50, values ahead:

pIC50 | SMILES
8.28 | O=C(N[C@H]1CC[C@@H](n2c(=O)c3cc(F)cnc3n(-c3ccc(F)c(F)c3)c2=O)CC1)c1ccc(F)cc1O [Example 51, N-{cis-4-[1-(3,4-difluorophenyl)-6-fluoro-2,4-dioxo-1,4-dihydropyrido[2,3-d]pyrimidin-3(2H)-yl]cyclohexyl}-4-fluoro-2-hydroxybenzamide]
8.28 | COC(=O)c1cccc(-n2c(=O)n([C@H]3CC[C@@H](NC(=O)C4CCC4)CC3)c(=O)c3cc(F)cnc32)c1 [Example 61, methyl 3-[3-{cis-4-[(cyclobutylcarbonyl)amino]cyclohexyl}-6-fluoro-2,4-dioxo-3,4-dihydropyrido[2,3-d]pyrimidin-1(2H)-yl]benzoate]
8.32 | COC(=O)c1cccc(-n2c(=O)n([C@H]3CC[C@@H](NC(=O)c4cccs4)CC3)c(=O)c3cc(F)cnc32)c1 [Example 66, methyl 3-[6-fluoro-2,4-dioxo-3-{cis-4-[(2-thienylcarbonyl)amino]cyclohexyl}-3,4-dihydropyrido[2,3-d]pyrimidin-1(2H)-yl]benzoate]
8.36 | COC(=O)c1cccc(-n2c(=O)n([C@H]3CC[C@@H](NC(=O)C(C)(C)C)CC3)c(=O)c3cc(F)cnc32)c1 [Example 64, methyl 3-[3-{cis-4-[(2,2-dimethylpropanoyl)amino]cyclohexyl}-6-fluoro-2,4-dioxo-3,4-dihydropyrido[2,3-d]pyrimidin-1(2H)-yl]benzoate]
8.38 | CSc1cccc(-n2c(=O)n([C@H]3CC[C@@H](NC(=O)c4ccccc4)CC3)c(=O)c3cc(F)cnc32)c1 [Example 57, N-{cis-4-[6-fluoro-1-[3-(methylthio)phenyl]-2,4-dioxo-1,4-dihydropyrido[2,3-d]pyrimidin-3(2H)-yl]cyclohexyl}benzamide]
8.41 | CSc1cccc(-n2c(=O)n([C@H]3CC[C@@H](NC(=O)c4ccco4)CC3)c(=O)c3cc(F)cnc32)c1 [Example 54, N-{cis-4-[6-fluoro-1-[3-(methylthio)phenyl]-2,4-dioxo-1,4-dihydropyrido[2,3-d]pyrimidin-3(2H)-yl]cyclohexyl}-2-furamide]
8.41 | CSc1cccc(-n2c(=O)n([C@H]3CC[C@@H](NC(=O)C4CCCC4)CC3)c(=O)c3cc(F)cnc32)c1 [Example 58, N-{cis-4-[6-fluoro-1-[3-(methylthio)phenyl]-2,4-dioxo-1,4-dihydropyrido[2,3-d]pyrimidin-3(2H)-yl]cyclohexyl}cyclopentanecarboxamide]
8.59 | CSc1cccc(-n2c(=O)n([C@H]3CC[C@@H](NC(=O)C4CC4)CC3)c(=O)c3cc(F)cnc32)c1 [Example 55, N-{cis-4-[6-fluoro-1-[3-(methylthio)phenyl]-2,4-dioxo-1,4-dihydropyrido[2,3-d]pyrimidin-3(2H)-yl]cyclohexyl}cyclopropanecarboxamide]
8.68 | COC(=O)c1ccc(C(=O)N[C@H]2CC[C@@H](n3c(=O)c4cc(F)cnc4n(-c4ccc(F)c(F)c4)c3=O)CC2)cn1 [Example 50, methyl 5-[({cis-4-[1-(3,4-difluorophenyl)-6-fluoro-2,4-dioxo-1,4-dihydropyrido[2,3-d]pyrimidin-3(2H)-yl]cyclohexyl}amino)carbonyl]pyridine-2-carboxylate]
9.22 | COC(=O)c1cccc(-n2c(=O)n([C@H]3CC[C@@H](NC(=O)c4cc5ccccn5n4)CC3)c(=O)c3cc(F)cnc32)c1 [Example 68, methyl 3-[6-fluoro-2,4-dioxo-3-{cis-4-[(pyrazolo[1,5-a]pyridin-2-ylcarbonyl)amino]cyclohexyl}-3,4-dihydropyrido[2,3-d]pyrimidin-1(2H)-yl]benzoate]
9.40 | O=C(N[C@H]1CC[C@@H](n2c(=O)c3cc(F)cnc3n(-c3ccc(F)c(F)c3)c2=O)CC1)c1cccc2cccnc12 [Example 53, N-{cis-4-[1-(3,4-difluorophenyl)-6-fluoro-2,4-dioxo-1,4-dihydropyrido[2,3-d]pyrimidin-3(2H)-yl]cyclohexyl}quinoline-8-carboxamide]
